Data as given in ChEMBL document CHEMBL5331052, “Discovery of a novel water-soluble, rapid-release triptolide prodrug with improved drug-like properties and high efficacy in human acute myeloid leukemia” (Eur J Med Chem, 2022).

Assays:
[1] = Prodrug conversion in Sprague-Dawley rat plasma assessed as triptolide release at 500 ng/ml measured after 1.5 hrs by UPLC-MS/MS analysis; type: ADME, cell-free
[2] = Aqueous solubility of compound at 1 to 10 mg/ml by HPLC analysis; type: physicochemical; details: water; dose 1-10 mg/ml
[3] = Chemical stability of the compound in water assessed as parent compound remaining at 2 mg/ml measured after 4 hrs by HPLC analysis; type: physicochemical; details: read-out: Stability
[4] = Prodrug conversion in Sprague-Dawley rat plasma assessed as triptolide release at 50 ug/ml measured after 30 mins by HPLC analysis; type: ADME, cell-free; details: 0.5 h, dose 50 µg/ml
[5] = Prodrug conversion in human plasma assessed as triptolide release at 50 ug/ml measured after 45 mins by HPLC analysis; type: ADME, cell-free; details: 0.75 h, dose 50 µg/ml
[6] = Prodrug conversion in human plasma assessed as triptolide release at 1 mg/ml measured after 1.5 hrs by HPLC analysis; type: ADME, cell-free
[7] = Chemical stability of the compound in water assessed as parent compound remaining at 2 mg/ml measured immediately by HPLC analysis; type: physicochemical; details: read-out: Stability
[8] = Prodrug conversion in Sprague-Dawley rat plasma assessed as triptolide release at 500 ng/ml measured after 8 hrs by UPLC-MS/MS analysis; type: ADME, cell-free

With `CC(C)[C@]12O[C@H]1[C@@H]1O[C@]13[C@]1(O[C@H]1C[C@H]1C4=C(CC[C@@]13C)C(=O)OC4)[C@@H]2OC(=O)CCC(=O)[O-].[Na+]` [OMTRIPTOLIDE SODIUM] the Drug metabolism [1] was “Metabolite_Detected”.

For `CC(C)[C@]12O[C@H]1[C@@H]1O[C@]13[C@]1(O[C@H]1C[C@H]1C4=C(CC[C@@]13C)C(=O)OC4)[C@@H]2OC(=O)CCCOC(=O)CN1CCOCC1.Cl`, the solubility [2] was 7490 µg/mL, the remaining at 4 h, 2 mg/ml [3] was 94.8% and the Drug metabolism [4] was “Metabolite_Detected”. For the same compound, the Drug metabolism [5] was “Metabolite_Detected”, the Drug metabolism [6] was “Metabolite_Detected” and the remaining at 0 h, 2 mg/ml [7] was 95%.

With `CC(C)[C@]12O[C@H]1[C@@H]1O[C@]13[C@]1(O[C@H]1C[C@H]1C4=C(CC[C@@]13C)C(=O)OC4)[C@@H]2OCOP(=O)([O-])[O-].[Na+].[Na+]` [MINNELIDE] the Drug metabolism [8] was “Metabolite_Detected”.
